Assay results from ChEMBL document CHEMBL4130354 (Eur J Med Chem, 2017).
pIC50: −log10 of the molar value.

Target: T1, Prostaglandin G/H synthase 2 (Ovis aries, UniProt P79208)
T1 sequence (P79208 whole entry): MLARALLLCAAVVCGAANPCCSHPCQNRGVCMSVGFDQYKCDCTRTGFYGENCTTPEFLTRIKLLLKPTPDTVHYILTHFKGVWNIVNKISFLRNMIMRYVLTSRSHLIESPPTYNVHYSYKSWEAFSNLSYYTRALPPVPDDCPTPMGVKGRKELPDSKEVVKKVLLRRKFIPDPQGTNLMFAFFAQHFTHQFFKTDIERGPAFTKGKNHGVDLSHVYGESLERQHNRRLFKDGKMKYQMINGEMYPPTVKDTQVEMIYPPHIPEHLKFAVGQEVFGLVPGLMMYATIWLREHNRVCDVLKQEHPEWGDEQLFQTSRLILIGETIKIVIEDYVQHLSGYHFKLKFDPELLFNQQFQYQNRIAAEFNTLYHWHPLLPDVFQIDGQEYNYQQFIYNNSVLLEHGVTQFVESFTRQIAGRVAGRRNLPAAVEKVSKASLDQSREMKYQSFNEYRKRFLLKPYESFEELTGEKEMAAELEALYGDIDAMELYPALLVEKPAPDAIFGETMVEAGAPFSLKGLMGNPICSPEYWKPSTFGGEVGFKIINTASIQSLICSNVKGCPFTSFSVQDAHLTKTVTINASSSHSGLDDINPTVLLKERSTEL
Test: Inhibition of recombinant ovine COX2 catalytic activity using arachidonic acid as substrate preincubated for 5 mins followed by substrate and hemin addition measured after 2 mins by colorimetric method

Work on `Cc1onc(-c2ccc(Cl)o2)c1-c1ccccc1` yielded a pIC50 of under 4.30.

With `COc1ccc(-c2noc(CC(=O)O)c2-c2ccc(OC)cc2)cc1` [MOFEZOLAC] the pIC50 was under 4.30.
